Measurements reported in PMC6120666 (The EMBO Journal, 2018).

Tested on: THP1Blue cells, NOD2
Experiment: THP1Blue NF-κB-SEAP reporter assay, MDP (NOD2)
Assay type: cell-based
Conditions: Homo sapiens; MDP 10 μg/ml; read-out: THP1-Blue NF-κB Inhibition IC50 (MDP)
Method: For HEKBlue assay, cells were seeded into clear 96‐well plates at 7.5 × 10^3 cells/well and allowed to attach for 48 h. On the day of the experiment, media was changed to 100 μl of HEKBlue detection media (InvivoGen). Inhibitors were diluted and added in 0.5 μl DMSO 15 min prior to the addition of 1 ng/ml L18‐MDP (InvivoGen). After 8–9 h, absorbance at 620 nm was measured using Victor3V plate reader (Perkin Elmer, Waltham, MA). Values of media‐only wells were subtracted and %inhibition for each compound concentration relative to the DMSO/L18‐MDP‐treated controls was calculated. […] After induction, 20 μl of media was mixed with 180 μl of QUANTI‐Blue reagent (InvivoGen) and incubated at 37°C for 3–4 h, followed by absorbance measurement at 620 nm. IC50 values were calculated as described for HEKBlue assay. […]
For HEKBlue assay, cells were seeded into clear 96 well plates at 7.5x10^3 cells/well and allowed to attach for 48 h. […] After 8-9 h, absorbance at 620 nm was measured using Victor3V plate reader (Perkin Elmer, Waltham, MA). Values of media-only wells were subtracted and %inhibition for each compound concentration relative to the DMSO/L18-MDP-treated controls were calculated.
Inhibition values + StDev were fitted by non-linear regression using Prism software (GraphPad Software, La Jolla, CA) to calculate IC50 values. […] IC50 values were calculated as described for HEKBlue assay. […]

SMILES	IC50
CCCS(=O)(=O)Nc1cc(-c2cc(-c3ccc(N4CCNCC4)cc3)cnc2N)cc(F)c1OC [CSLP37]	22.5 ± 2.1 nM
CCCS(=O)(=O)Nc1cc(-c2cc(-c3ccc(N4CCNCC4)cc3)cnc2N)cc(OC)c1OC [CSLP43]	1.34 ± 0.08 nM
